Results reported in article PMC11288129, “Diversely evolved xibalbin variants from remipede venom inhibit potassium channels and activate PKA-II and Erk1/2 signaling” (BMC Biology, 2024).
“Also recorded” adds a separate entry of the source. Positions of bridges follow the written chain, without caps; N, C: chain ends. No end group written: not given here.

Experiments:
[1] = test system: rNav1.4; assay: TEVC inhibition, Nav1.4; type: cell-based, rat; conditions: 1 µM, Xenopus oocytes, ND96, 18–22 °C, mean ± SEM, n ≥ 3
Description: (§1) For the expression of Kv channels rat Kv1.1 (GenBank accession number: NM_173095 [88, 89]), rKv1.2 (NM_012970 [90, 91]), human Kv1.3 (NM_002232 [92, 93]), rKv1.4 (NM_012971 [94, 95]), rKv1.6 (NM_023954 [96, 97]), hKv2.1 (NM_004975 [98, 99]), hKv3.1 (NM_004976 [100, 101]), rKv4.2 (NM_031739 [102, 103]), hKv10.1 (NM_172362 [104, 105]), hERG1 [Kv11.1, (NM_000238 [106, 107])], and Shaker IR [from Drosophila melanogaster, (NM_167595 [108, 109])], Nav channels [rNav1.2 (NM_012647 [42, 110]), rNav1.4 (NM_013178 [111, 112]), hNav1.5 (NM_198056 [113, 114]), mNav1.6 (NM_001077499 [115, 116]), BgNav [from Blattella germanica, (DQ466887 [117, 118])] and the auxiliary subunits rβ1 (NM_001271045 [119, 120]), hβ1 (NM_001037 [121, 122]), and TipE [from D. melanogaster, (NM_079196 [109, 123])], and Cav channels hCav3.1 [124, 125], hCav3.2 [126, 127], and hCav3.3 [128, 129] in Xenopus oocytes, the linearized plasmids were transcribed using the T7 or SP6 mMESSAGEmMACHINE transcription kit (Ambion, Austin, TX, USA). […]
(§2) Whole-cell currents of oocytes were recorded 1 to 3 days after injection. […] The current–voltage (IV) relationships were determined by 100-ms step depolarizations between − 90 and + 40 mV, using 5 mV increments. […]

[2] = test system: Kv1.1; assay: TEVC inhibition, Kv1.1; type: cell-based, rat; parameters: Inhibition data, Kv1.1: unit not given here; conditions: 1 µM
Description: (§3) For the expression of Kv channels rat Kv1.1 (GenBank accession number: NM_173095 [88, 89]), rKv1.2 (NM_012970 [90, 91]), human Kv1.3 (NM_002232 [92, 93]), rKv1.4 (NM_012971 [94, 95]), rKv1.6 (NM_023954 [96, 97]), hKv2.1 (NM_004975 [98, 99]), hKv3.1 (NM_004976 [100, 101]), rKv4.2 (NM_031739 [102, 103]), hKv10.1 (NM_172362 [104, 105]), hERG1 [Kv11.1, (NM_000238 [106, 107])], and Shaker IR [from Drosophila melanogaster, (NM_167595 [108, 109])], Nav channels [rNav1.2 (NM_012647 [42, 110]), rNav1.4 (NM_013178 [111, 112]), hNav1.5 (NM_198056 [113, 114]), mNav1.6 (NM_001077499 [115, 116]), BgNav [from Blattella germanica, (DQ466887 [117, 118])] and the auxiliary subunits rβ1 (NM_001271045 [119, 120]), hβ1 (NM_001037 [121, 122]), and TipE [from D. melanogaster, (NM_079196 [109, 123])], and Cav channels hCav3.1 [124, 125], hCav3.2 [126, 127], and hCav3.3 [128, 129] in Xenopus oocytes, the linearized plasmids were transcribed using the T7 or SP6 mMESSAGEmMACHINE transcription kit (Ambion, Austin, TX, USA). Mature female animals were purchased from Nasco (Fort Atkinson, USA) and were housed in the Aquatic Facility (KU Leuven) in compliance with the regulations of the European Union (EU) concerning the welfare of laboratory animals as declared in Directive 2010/63/EU. The use of X. laevis oocytes was approved by the Animal Ethics Committee of the KU Leuven with the license number P186/2019. Stage V–VI oocytes were collected from anesthetized female X. laevis frog as previously described, with the frogs anesthetized by placement in 0.1% tricaine solution (amino benzoic acid ethyl ester; Merck, USA). Oocyte microinjection was performed using a microinjector (Drummond Scientifc®, USA), with a programmed cRNA injection volume of 4—50 nL, depending on the channel subtype. The oocytes were incubated in ND96 solution (96 mM NaCl, 2 mM KCl, 1.8 mM CaCl2, 2 mM MgCl2, and 5 mM HEPES, pH 7.4), supplemented with 50 mg/l gentamicin sulfate.
(§4) Electrophysiological measurements were performed at room temperature (18–22 °C) using the two-electrode voltage clamp (TEVC) technique. Data were obtained using a GeneClamp 500 amplifier (Axon Instruments, USA), and Clampex9 software (Axon Instruments), responsible for data acquisition and storage. Glass micropipettes were produced using glass capillaries (borosilicate WPI 1B120-6) and drawn in a WPI (World Precision Instruments, USA) manual stretcher. The bath and perfusion solutions were either the previously described ND96 (Nav and Kv channels) or calcium-free ND96 supplemented with 10 mM BaCl2 (Cav channels).
(§5) Whole-cell currents of oocytes were recorded 1 to 3 days after injection. Current and voltage electrodes were filled with 3 M KCl and their resistance was adjusted from 0.7 to 2.0 MΩ. Currents were sampled at 20 kHz (Nav channels) and 10 kHz (Kv and Cav channels) and filtered using a four-pole Bessel low-pass Bessel filter, at 1 kHz for sodium, and […] for potassium and calcium, except for the hERG ion channel, in which the currents were filtered at 1 kHz. Leak subtraction was performed using a -P/4 protocol. Kv1.x currents were evoked by 500 ms depolarizations to 0 mV followed by a 500-ms pulse to − 50 mV, from a holding potential of − 90 mV. Kv2.1, Kv3.1, and Kv4.2 currents were elicited by 500 ms pulses to + 20 mV from a holding potential of − 90 mV. Current traces of Kv10.1 were elicited by 2 s depolarization to 0 mV, from a holding potential of − 90 mV. Current traces of hERG1 channel were elicited by applying a + 40 mV prepulse for 2 s followed by a step of − 120 mV for 2 s. Sodium current traces were evoked by a 100 ms depolarization to 0 mV, from a holding potential of − 90 mV. The current–voltage (IV) relationships were determined by 100-ms step depolarizations between − 90 and + 40 mV, using 5 mV increments. […]

[3] = test system: voltage-gated potassium channels (Kvs); assay: TEVC on panel of voltage-gated potassium channels; type: cell-based; conditions: 1 µM
Description: as §1, §2

[4] = test system: hKv3.1; assay: TEVC inhibition, Kv3.1; type: cell-based, human; parameters: unit not given here; conditions: 1 µM
Description: as §3, §4, §5

Sequence | inhibition of Nav1.4 [1] | inhibition of Kv1.1 [2] | Inhibition data, Kv1.1 ([2]; replicate 1) | Inhibition data, Kv1.1 ([2]; replicate 2) | Inhibition data, Kv1.1 ([2]; replicate 3) | Inhibition data, Kv1.1 ([2]; replicate 4) | inhibition of voltage-gated potassium channels [3] | Inhibition data, Kv3.1 ([4]; replicate 1) | Inhibition data, Kv3.1 ([4]; replicate 2) | Inhibition data, Kv3.1 ([4]; replicate 3) | Inhibition data, Kv3.1 ([4]; replicate 4)
KRSCIRRFGRCDHRPNDCCYNSSCRCNLWGSNCRCQRMGLFQKWGK (disulfide 4-19, 11-24, 18-35, 26-33) [xib13] | 33.0 ± 2.4% | inhibit especially Kv1.1 channels | 83.4 | 86.7 | 85.0 | 83.1 | potent inhibition; also recorded: most significant inhibition rates | 0.0 | 0.0 | 0.0 | 0.0
RLFCIRHHKYCGHRPKRCCSGLFCRCNTFGTNCRCQSKGALGKLI (disulfide 4-19, 11-24, 18-35, 26-33) [xib1] | 21.8 ± 3.3% | inhibit especially Kv1.1 channels | 76.3 | 66.2 | 76.2 | 75.3 | potent inhibition | 0.0 | 0.0 | 0.0 | 0.0
